Patent US8399033B2, “Anti-bacterial composition comprising extract from barks of Alnus pendula Matsum” (Chung-Ang University Industry Academic Cooperation …, priority 2009, dated 2013)
≈ marks a conversion by molar mass, not a printed value.

Tests used:
[1] = DPPH free radical scavenging activity; assay type: biochemical; conditions: 0.1 mM DPPH, 30 min at 37° C., absorbance 492 nm; for IC50: compounds
Protocol: Each sample (10 μL) was incubated with 0.1 mM DPPH solution (180 μL, in 99.5% ethanol), and vigorously agitated for 10 sec using a vortex mixer, followed by incubation for 30 min at 37° C. Afterwards, the absorbance was measured at 492 nm using an ELISA reader (TECAN, Sazburg, Austria). L-ascorbic acid as positive control drug was prepared and measured according to the method as described above. To determine anti-oxidative activity of each sample, anti-oxidative potential was represented as reducing power by EDA % (Electron donating ability) for DPPH. […] DPPH method is a representative measuring anti-oxidative activity (81). DPPH contains stable radical in normal condition, but its radical was removed where it contacts with a substance having anti-oxidative activity. Therefore, anti-oxidative effects could be assessed by measuring the absorbance changes of DPPH. In this regard, DPPH as a relatively stable free radical in dark-purple state was reduced by amino acids containing sulfur atom such as cystin and glutathione, L-ascorbic acid, BHA or BHT. These color changes have been used to isolate an anti-oxidative substance from a variety of natural materials (82).

DPS-2 (MRSA) = experiment: MIC by liquid media dilution assay; assay type: cell-based; conditions: Staphylococcus aureus; DPS-2 (MRSA) clinical isolate; 24 hrs at 37° C., naked-eye observation; read-out: MIC (minimum inhibitory concentration)
Protocol: (§1) S.aureus MSSA ATCC 25923 and MRSA 33591 standard strains were purchased from Korean Culture Center of Microorganisms (KCCM), and two S. aureus clinical isolates were obtained from subjects of WonKwang University Hospital (Iksan, Jeonbuk, South Korea). Mueller Hinton Agar (MHA, Difco, USA) or Mueller Hinton Broth (MHB, Difco, USA) was used as subculture media.
(§2) Minimum Inhibitory Concentration (MIC) was carried out according to the standard of Clinical and Laboratory Standards Institute (CLSI). One strain of MRSA (Methicillin resistant staphylococcus aureus), one strain of MSSA (Methicillin susceptible staphylococcus aureus, MSSA), and two strains of MRSAs as clinical isolates obtained from plastic surgery subjects of WonKwang University Hospital, were suspended in Muller-Hinton Broth. Thereafter, the bacterial solutions were adjusted to the turbidity of 0.5 Mcfarland standard. The bacteria were prepared at a concentration of about 1×10^8 CFU/ml, followed by performing anti-bacterial experiment using a liquid media dilution assay.
(§3) The extract from a bark of Alnus pendula was serially diluted from minimal concentration (0.97 μg/ml) to maximal concentration (2 mg/ml) using DMSO (Dimethylsulfoxide) as a solvent, and then were seeded into each well of 96-well plate with a volume of 10 μl/well, followed by adding 100 μl bacterial solution and 90 μl media. After culturing the mixture for 24 hrs at 37° C. in incubator, MIC was defined as minimal concentration in which the growth of bacteria is inhibited in a naked-eye observation.

[2] = test system: S. aureus ATCC 25923 (MSSA); experiment: MIC by liquid media dilution assay; assay type: cell-based; conditions: Staphylococcus aureus, 24 hrs at 37° C., naked-eye observation, read-out: MIC (minimum inhibitory concentration)
Protocol: as §1, §2, §3

[3] = test system: S. aureus ATCC 33591 (MRSA); experiment: MIC by liquid media dilution assay; assay type: cell-based; conditions: Staphylococcus aureus, 24 hrs at 37° C., naked-eye observation, read-out: MIC (minimum inhibitory concentration)
Protocol: as §1, §2, §3

DPS-1 (MRSA) = experiment: MIC by liquid media dilution assay; assay type: cell-based; conditions: Staphylococcus aureus; DPS-1 (MRSA) clinical isolate; 24 hrs at 37° C., naked-eye observation; read-out: MIC (minimum inhibitory concentration)
Protocol: as §1, §2, §3

IC50 [1] [µM]	MIC (DPS-2 (MRSA)) [µg/mL]	MIC [2] [µg/mL]	MIC [3] [µg/mL]	MIC (DPS-1 (MRSA)) [µg/mL]	IC50 value DPPH radical scavenging activity ([1]; extract and fractions) [µg/mL]	Structure (SMILES)
22.5 ± 0.71	62.5 (≈ 190 µM)	62.5 (≈ 190 µM)	62.5 (≈ 190 µM)	125 (≈ 381 µM)		O=C(/C=C/CCc1ccc(O)c(O)c1)CCc1ccc(O)c(O)c1 [compound 2, 1,7-bis-(3,4-dihydroxyphenyl)-4-heptene-3-one]
16.4 ± 0.21					5.29 ± 0.05 (≈ 30 µM)	O=C1O[C@H]([C@@H](O)CO)C(O)=C1O [Vit. C, L-ascorbic acid]
